Key:
Assay type in all cases: biochemical
human CAI [1] = target: T1, human CAI (Homo sapiens, UniProt P00915); assay: Iodide-inhibited hydrolase activity, o-nitrophenyl acetate (Example 9); settings: 25-μg/mL human CAI solution; 9 mM o-nitrophenyl acetate solution; 300 mM potassium iodide solution; pH 8, room temperature, five minutes
Experimental: (§1) o-Nitrophenyl acetate was used as a substrate having higher reactivity with CAI than with CAII, and in combination, an iodide ion (I^−) was used as a CA inhibitor inhibiting CAI more potently than CAII.
(§2) • (1) By use of purified water, a 25-μg/mL human CAI solution and a 5-μg/mL human CAII solution were prepared. • (2) A 300 mM potassium iodide solution was prepared by use of a 30 mM dimethyl malonate buffer (pH 8). • (3) By use of purified water, a 9 mM o-nitrophenyl acetate solution was prepared. Before dissolution in water, the substrate had been dissolved in advance in acetone. […] Absorbance of the mixture was measured at 405 nm before and after reaction, and change in absorbance (ΔA) was calculated.
(§3) In order to prepare a sample reference and an inhibitor reference, only purified water and 30 mM dimethyl malonate buffer were used as reference solutions (1) and (2), respectively. Each of the references was allowed to react in the same manner as employed above, and absorbance of the mixture was measured, whereby change in absorbance of the reference was determined. […]

human CAII [2] = target: T2, human CAII (Homo sapiens, UniProt P00918); assay: as above; settings: 5-μg/mL human CAII solution; 9 mM o-nitrophenyl acetate solution; 300 mM potassium iodide solution; pH 8, room temperature, five minutes
Experimental: as §1, §2, §3

human CAI [3] = target: T1, human CAI; assay: Acetazolamide-inhibited hydrolase activity (Example 5); settings: for Absorbance change (CA-intrinsic, inhibited by acetazolamide, 405 nm): 25-μg/mL human CAI solution, 3 mM acetazolamide solution, pH 8, room temperature, five minutes; for reactivity of substrate with CAI relative to reactivity with CAII: used in combination with acetazolamide (Example 5, Table 3)
From the text: (§4) o-Nitrophenyl acetate was employed as a substrate having higher reactivity with CAI than with CAII. As an inhibitor, acetazolamide, which inhibits both CAI and CAII, was used in combination. A reference substrate was produced from p-nitrophenyl acetate—a substrate having low specificity to CAI (reactive with both CAI and CAII)—and the above acetazolamide serving as a CA inhibitor in combination.
(§5) • (1) By use of purified water, a 25-μg/mL human CAI solution and a 5-μg/mL human CAII solution were prepared. • (2) A 3 mM acetazolamide solution was prepared by use of a 30 mM dimethyl malonate buffer (pH 8). Before dissolution in the buffer, acetazolamide had been dissolved in advance in dimethyl sulfoxide (DMSO). Thus, the solution has a DMSO content of 0.15% (v/v). • (3) By use of purified water, a 6 mM o-nitrophenyl acetate solution and a 3 mM p-nitrophenyl acetate solution were prepared. Before dissolution in water, each substrate had been dissolved in advance in acetone. […] Specifically, solutions of (1), (2), and (3) (each 50 μL) were mixed, and the mixture was allowed to react at room temperature for five minutes. Absorbance of the mixture was measured at 405 nm before and after reaction, and change in absorbance (ΔA) was calculated.
(§6) In order to prepare a sample reference and an inhibitor reference, only purified water and 0.15% (v/v) DMSO-containing 30 mM dimethyl malonate buffer were used as reference solutions (1) and (2), respectively. Each of the references was allowed to react in the same manner as above, and absorbance of the mixture was measured, whereby change in absorbance of the reference was determined.
(§7) <Calculation> Change in CA-intrinsic absorbance=[ΔA1−ΔA3]−[ΔA2−ΔA4]; wherein • ΔA1 represents change in absorbance of a sample consisting of solution (1), reference solution (2), and solution (3); • ΔA2 represents change in absorbance of a sample consisting of solutions (1), (2), and (3); • ΔA3 represents change in absorbance of a sample consisting of reference solutions (1) and (2), and solution (3); and • ΔA4 represents change in absorbance of a sample consisting of reference solution (1) and solutions (2) and (3). <Results>

human CAII [4] = target: T2, human CAII; assay: as above; settings: 5-μg/mL human CAII solution, 3 mM acetazolamide solution, pH 8, room temperature, five minutes
From the text: as §4, §5, §6, §7

human CAI [5] = target: T1, human CAI; assay: Hydrolase activity, o-nitrophenyl acetate substrate, no inhibitor (Example 1); settings: 25-μg/mL human CAI solution, 9 mM substrate solution, pH 8, room temperature, five minutes
Experimental: (§8) o-Nitrophenyl acetate was employed as a substrate having higher reactivity with CAI than with CAII, and no inhibitor was used.
(§9) • (1) By use of purified water, a 25-μg/mL human CAI solution and a 5-μg/mL human CAII solution were prepared. • (2) A 30 mM dimethyl malonate buffer (pH: 8) was provided. • (3) By use of purified water, a 9 mM o-nitrophenyl acetate solution was prepared. Before dissolution in water, the substrate had been dissolved in advance in acetone. […] Specifically, solutions of (1), (2), and (3) (each 50 μL) were mixed, and the mixture was allowed to react at room temperature for five minutes. Absorbance of the mixture was measured at 405 nm before and after reaction, and change in absorbance (ΔA) was calculated.
(§10) In order to prepare a sample reference, only purified water was used as solution (1). The reference was allowed to react in the same manner as above, and absorbance of the mixture was measured at 405 nm before and after reaction, whereby change in absorbance of the reference was determined. The change in absorbance intrinsic to CA was calculated by the following equation:
(§11) <Calculation> Change in CA-intrinsic absorbance=ΔA1−ΔA3; wherein
(§12) ΔA1 represents change in absorbance of a sample consisting of solutions (1), (2), and (3), and
(§13) ΔA3 represents change in absorbance of a sample consisting of reference solution (1) and solutions (2) and (3).

human CAII [6] = target: T2, human CAII; assay: as above; settings: 5-μg/mL human CAII solution, 9 mM substrate solution, pH 8, room temperature, five minutes
Experimental: as §8, §9, §10, §11, §12, §13

human CAI [7] = target: T1, human CAI; assay: Hydrolase activity with AEBSF and formaldehyde (Example 3); settings: 25-μg/mL human CAI solution; 9 mM substrate solution; 0.1 mM AEBSF and 50 mM formaldehyde; pH 8, room temperature, five minutes
Experimental: (§14) o-Nitrophenyl acetate was employed as a substrate having higher reactivity with CAI than with CAII. In addition, 4-(2-aminoethyl)benzenesulfony fluoride (AEBSF) serving as an inhibitor inhibiting a hydrolase other than CA, and formaldehyde serving as an enhancer of the inhibitor were employed.
as §2, with “A” for “A 300 mM potassium iodide solution was prepared by use of a”, “(pH: 8) including 0.1 mM AEBSF, and 50 mM formaldehyde were provided.” for “(pH 8).”
as §10, §11
(§15) ΔA1 represents change in absorbance of a sample consisting of solution (1), solution (2), and solution (3), and […]

human CAII [8] = target: T2, human CAII; assay: as above; settings: 5-μg/mL human CAII solution; 9 mM substrate solution; 0.1 mM AEBSF and 50 mM formaldehyde; pH 8, room temperature, five minutes
Experimental: as §14
as §2, with “A” for “A 300 mM potassium iodide solution was prepared by use of a”, “(pH: 8) including 0.1 mM AEBSF, and 50 mM formaldehyde were provided.” for “(pH 8).”
as §10, §11, §15

human CAI [9] = target: T1, human CAI; assay: Iodide-inhibited hydrolase activity, p-nitrophenyl acetate (Example 7); settings: 25-μg/mL human CAI solution; 3 mM p-nitrophenyl acetate solution; 3 mM potassium iodide solution; pH 8, room temperature, five minutes
Experimental: (§16) p-Nitrophenyl acetate serving as a substrate reacting with both CAI and CAII and an iodide (I^−) serving as a CA inhibitor inhibiting CAI more potently than CAII were employed in combination.
as §9, with “(2) A 3 mM potassium iodide solution was prepared by use of a 30 mM” for “(2) A 30 mM”, “malonate buffer (pH 8). • (3)” for “malonate buffer (pH: 8) was provided. • (3)”, “water, a 3 mM p-nitrophenyl” for “water, a 9 mM o-nitrophenyl”, “3 mM p-nitrophenyl acetate solution” for “9 mM o-nitrophenyl acetate solution”
as §3

human CAII [10] = target: T2, human CAII; assay: as above; settings: 5-μg/mL human CAII solution; 3 mM p-nitrophenyl acetate solution; 3 mM potassium iodide solution; pH 8, room temperature, five minutes
Experimental: as §16
as §9, with “(2) A 3 mM potassium iodide solution was prepared by use of a 30 mM” for “(2) A 30 mM”, “malonate buffer (pH 8). • (3)” for “malonate buffer (pH: 8) was provided. • (3)”, “water, a 3 mM p-nitrophenyl” for “water, a 9 mM o-nitrophenyl”, “3 mM p-nitrophenyl acetate solution” for “9 mM o-nitrophenyl acetate solution”
as §3

[11] = 6 mM o-nitrophenyl acetate solution
[12] = 3 mM p-nitrophenyl acetate solution

T1 sequence (P00915 whole entry): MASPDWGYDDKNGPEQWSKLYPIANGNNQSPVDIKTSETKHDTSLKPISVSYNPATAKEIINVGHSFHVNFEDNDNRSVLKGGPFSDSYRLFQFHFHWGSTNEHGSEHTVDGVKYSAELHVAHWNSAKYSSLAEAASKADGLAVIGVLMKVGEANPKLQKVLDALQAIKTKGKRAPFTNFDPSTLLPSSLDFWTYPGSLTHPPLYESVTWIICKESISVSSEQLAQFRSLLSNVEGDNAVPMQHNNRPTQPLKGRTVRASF

Which results are given for `CC(=O)Oc1ccccc1[N+](=O)[O-]` [o-Nitrophenyl acetate, o-nitrophenyl acetate]?
Absorbance change (CA-intrinsic, inhibited by iodide, 405 nm) (human CAI [1]): 0.504; Absorbance change (CA-intrinsic, inhibited by iodide, 405 nm) (human CAII [2]): 0.009; Absorbance change (CA-intrinsic, inhibited by acetazolamide, 405 nm) (human CAI [3]; [11]): 0.285; reactivity of substrate with CAI relative to reactivity with CAII (human CAI [3]): higher than twice the reactivity with CAII; Absorbance change (CA-intrinsic, inhibited by acetazolamide, 405 nm) (human CAII [4]; [11]): 0.004; Absorbance change (CA-intrinsic, 405 nm) (human CAI [5]): 0.511; Absorbance change (CA-intrinsic, 405 nm) (human CAII [6]): 0.011; Absorbance change (CA-intrinsic, 405 nm) (human CAI [7]): 0.329; Absorbance change (CA-intrinsic, 405 nm) (human CAII [8]): 0.008

With `CC(=O)Oc1ccc([N+](=O)[O-])cc1` [p-Nitrophenyl acetate, p-nitrophenyl acetate] as the molecule, how does the “Absorbance change (CA-intrinsic, inhibited by iodide, 405 nm)” value (human CAI [9]) read?
Its value is 0.052.

And the “Absorbance change (CA-intrinsic, inhibited by iodide, 405 nm)” value (human CAII [10])?
The value was 0.005.

And the “Absorbance change (CA-intrinsic, inhibited by acetazolamide, 405 nm)” value (human CAI [3]; [12])?
The value was 0.283.

What about the “reactivity of substrate with CAI relative to reactivity with CAII” value (human CAI [3]) of the same molecule?
The value was “lower than twice the reactivity with CAII”.

What about the “Absorbance change (CA-intrinsic, inhibited by acetazolamide, 405 nm)” value (human CAII [4]; [12]) of the same molecule?
The value was 0.162.
